Legend:
[1] = molecular target: T1, TGF-beta receptor type-1 (Homo sapiens, UniProt P36897); experiment: (§1) In Vitro Enzyme Inhibition Using a Biochemical Peptide Phosphorylation Assay- Caliper Assay: Example 54:The assays were performed in 384-well, low volume microtiter assay plates in a final reaction volume of 9 ul.
T1 sequence (P36897 whole entry): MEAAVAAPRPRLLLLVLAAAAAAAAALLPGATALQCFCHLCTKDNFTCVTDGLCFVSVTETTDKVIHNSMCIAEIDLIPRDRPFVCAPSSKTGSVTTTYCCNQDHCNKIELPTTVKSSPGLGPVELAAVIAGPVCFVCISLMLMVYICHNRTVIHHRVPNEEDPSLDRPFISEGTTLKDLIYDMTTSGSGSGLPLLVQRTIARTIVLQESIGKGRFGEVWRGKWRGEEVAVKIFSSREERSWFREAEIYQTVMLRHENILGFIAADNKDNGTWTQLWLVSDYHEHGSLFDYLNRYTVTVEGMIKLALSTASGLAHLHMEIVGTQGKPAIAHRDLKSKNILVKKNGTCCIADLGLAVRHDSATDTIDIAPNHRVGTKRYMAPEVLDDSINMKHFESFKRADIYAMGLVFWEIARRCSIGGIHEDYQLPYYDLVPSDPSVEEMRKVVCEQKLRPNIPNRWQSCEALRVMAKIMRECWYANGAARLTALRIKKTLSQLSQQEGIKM

[2] = molecular target: T2, Activin receptor type-1 (Homo sapiens, UniProt Q04771); experiment: as §1
T2 sequence (Q04771 whole entry): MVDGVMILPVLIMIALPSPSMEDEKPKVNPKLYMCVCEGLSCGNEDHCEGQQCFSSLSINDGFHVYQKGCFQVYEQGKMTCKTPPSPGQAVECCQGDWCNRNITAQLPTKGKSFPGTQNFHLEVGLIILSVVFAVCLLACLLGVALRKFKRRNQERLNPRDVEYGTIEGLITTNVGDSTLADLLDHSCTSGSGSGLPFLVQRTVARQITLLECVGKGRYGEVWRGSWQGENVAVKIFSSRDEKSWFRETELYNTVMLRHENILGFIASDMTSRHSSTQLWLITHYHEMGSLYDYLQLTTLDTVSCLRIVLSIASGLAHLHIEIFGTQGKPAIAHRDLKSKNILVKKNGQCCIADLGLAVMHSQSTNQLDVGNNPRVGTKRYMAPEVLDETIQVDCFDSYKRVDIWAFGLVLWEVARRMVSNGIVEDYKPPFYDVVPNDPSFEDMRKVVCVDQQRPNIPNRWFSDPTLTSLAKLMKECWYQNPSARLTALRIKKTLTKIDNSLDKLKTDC

[3] = molecular target: Activin receptor type-1-like (Homo sapiens, UniProt P37023); experiment: as §1
[4] = molecular target: T2, Activin receptor type-1; experiment: Luminescence-Based ADPGlo Kinase Activity Assay: Example 53: The assays were performed in 384-well, low volume microtiter assay plates in a final reaction volume of 6 ul. Dose-response curves were generated by incubating 10 nM of each kinase in 50 mM Hepes pH 7.5, 0.02% Tween 20, 0.02% BSA, 1 mM DTT, 10 uM Na3VO4, 10 mM ß-Glycerolphosphate, 1 mM MgCl2, 12 mM MnCl2 and 15 uM ATP for 60 min at 32° C. in the presence or absence of compound diluted in DMS. The amount of generated ADP is a measure of kinase activity and is quantified using the ADP-Glo Kinase Assay (Promega) according to manufacturer's instructions. […] and incubation at 32° C. for 60 min. ATP is subsequently converted into a bioluminescent signal by adding 6 ul luciferase assay reagents (Kinase detection buffer+Kinase Detection Substrate (Promega)) and further incubation at 32° C. for 60 min. For the measurement of luminescence a PHERAstar Multilabel Reader was used at a measurement interval time of 0.1 second (optical module for luminescence measurements in the 230 nm to 750 nm wavelength range). The luminescent signal positively correlates with kinase activity.
[5] = molecular target: Bone morphogenetic protein receptor type-1A (Homo sapiens, UniProt P36894); experiment: Luminescence-Based ADPGlo Kinase Activity Assay: Example 53: The assays were performed in 384-well, low volume microtiter assay plates in a final reaction volume of 6 ul. Dose-response curves were generated by incubating 10 nM of each kinase in 50 mM Hepes pH 7.5, 0.02% Tween 20, 0.02% BSA, 1 mM DTT, 10 uM Na3VO4, 10 mM ß-Glycerolphosphate, 1 mM MgCl2, 12 mM MnCl2 and 15 uM ATP for 60 min at 32° …
[6] = molecular target: Bone morphogenetic protein receptor type-1B (Homo sapiens, UniProt O00238); experiment: In Vitro Enzyme Inhibition Using a Biochemical Peptide Phosphorylation Assay- Caliper Assay: Example 54:The assays were performed in 384-well, low volume microtiter assay plates in a final reaction volume of 9 ul. Dose-response curves were generated by incubating 10 nM of each kinase together with 2 uM of the fluorescently labeled substrate peptide 5-Fluo-Ahx-KKYQAEEN-T-YDEYENKK-amid (10 mM stock …
Bone morphogenetic protein receptor type-1B, sequence (O00238 whole entry): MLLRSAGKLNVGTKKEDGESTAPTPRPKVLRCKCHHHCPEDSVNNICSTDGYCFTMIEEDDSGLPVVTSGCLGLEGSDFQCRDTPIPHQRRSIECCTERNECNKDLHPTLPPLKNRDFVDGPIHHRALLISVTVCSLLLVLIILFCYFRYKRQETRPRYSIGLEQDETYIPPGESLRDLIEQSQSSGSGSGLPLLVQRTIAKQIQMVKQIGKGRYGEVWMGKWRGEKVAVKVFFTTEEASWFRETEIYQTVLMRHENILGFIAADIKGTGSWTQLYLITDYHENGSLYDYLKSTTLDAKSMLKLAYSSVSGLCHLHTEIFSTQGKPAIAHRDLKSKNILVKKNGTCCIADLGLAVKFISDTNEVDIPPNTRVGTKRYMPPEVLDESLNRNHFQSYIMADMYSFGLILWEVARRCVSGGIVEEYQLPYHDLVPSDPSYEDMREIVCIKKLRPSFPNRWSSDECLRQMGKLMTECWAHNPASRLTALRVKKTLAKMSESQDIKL

Bone morphogenetic protein receptor type-1A, sequence (P36894 whole entry): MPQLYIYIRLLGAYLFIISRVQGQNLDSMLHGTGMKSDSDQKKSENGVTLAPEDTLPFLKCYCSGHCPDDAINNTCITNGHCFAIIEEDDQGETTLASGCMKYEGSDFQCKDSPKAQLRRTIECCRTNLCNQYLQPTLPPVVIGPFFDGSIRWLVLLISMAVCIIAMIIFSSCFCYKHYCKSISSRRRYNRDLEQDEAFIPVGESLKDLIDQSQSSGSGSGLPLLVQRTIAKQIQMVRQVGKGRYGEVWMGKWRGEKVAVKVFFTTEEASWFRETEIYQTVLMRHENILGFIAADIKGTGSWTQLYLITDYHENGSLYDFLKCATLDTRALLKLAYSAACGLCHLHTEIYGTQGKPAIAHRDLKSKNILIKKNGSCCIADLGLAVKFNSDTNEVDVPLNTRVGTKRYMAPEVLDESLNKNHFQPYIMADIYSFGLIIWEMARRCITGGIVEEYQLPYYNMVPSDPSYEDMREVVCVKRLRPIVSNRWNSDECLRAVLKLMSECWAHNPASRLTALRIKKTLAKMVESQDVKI
Activin receptor type-1-like, sequence (P37023 whole entry): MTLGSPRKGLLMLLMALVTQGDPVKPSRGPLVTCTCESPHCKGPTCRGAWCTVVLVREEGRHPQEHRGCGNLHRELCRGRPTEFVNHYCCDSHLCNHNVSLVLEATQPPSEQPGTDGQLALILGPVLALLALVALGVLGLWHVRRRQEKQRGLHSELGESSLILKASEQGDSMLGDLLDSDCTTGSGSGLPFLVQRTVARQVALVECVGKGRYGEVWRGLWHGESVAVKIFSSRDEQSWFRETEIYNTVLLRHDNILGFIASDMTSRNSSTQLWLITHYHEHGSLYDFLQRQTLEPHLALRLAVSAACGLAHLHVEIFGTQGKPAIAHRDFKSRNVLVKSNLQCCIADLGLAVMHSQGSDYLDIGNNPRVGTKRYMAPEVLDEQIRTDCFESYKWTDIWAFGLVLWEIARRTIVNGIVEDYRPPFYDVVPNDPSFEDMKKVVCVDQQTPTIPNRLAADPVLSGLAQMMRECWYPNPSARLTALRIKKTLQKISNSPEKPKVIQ

IC50 [1]: 2400 nM
IC50 [2]: 160 nM
IC50 [3]: 690 nM
IC50 [4]: 110 nM
IC50 [5]: 930 nM
IC50 [6]: 1200 nM
SMILES: CC(C)CN1c2ccc(-c3cncc(-c4ccc(=O)n(C(C)C)c4)c3)cc2CS1(=O)=O

Reference: ChEMBL document CHEMBL5728775, “Pyridinone derivatives and their use as selective ALK-2 inhibitors” (2021)
